IC50 data for twelve compounds are collected here from patent US9345740B2, “IAP antagonists” (BRISTOL-MYERS SQUIBB COMPANY, priority 2012, dated 2016).

Each structure is given as a SMILES string.

Holding throughout (assay type): binding
Assay [1] concerns the target XIAP BIR3 (His-BIR3 (241-356, XIAP)) (Homo sapiens (Human), UniProt P98170).
The target of assay [2] is XIAP BIR2-3 (His-BIR2-3 (125-356, C202A/C213G, XIAP)) (Homo sapiens (Human), UniProt P98170, C202A/C213G).
Assay [3] has as its target XIAP BIR3 (N-His-Tb-BIR3(241-356, XIAP)) (Homo sapiens (Human), UniProt P98170).
Assay [4] addresses XIAP BIR2 (His-BIR2 (124-240/C202A/C213G)) (Homo sapiens (Human), UniProt P98170, C202A/C213G). Put plainly: XIAP-BIR2/SMAC Peptide AlphaScreen Assay. The following applies: footnote *: XIAP BIR2 alpha screen (printed in the BIR2-3 column). The protocol: C. XIAP-BIR2/SMAC Peptide AlphaScreen Assay
Assays were performed in white, flat-bottom, 384-well ProxiPlates (Perkin Elmer). The final assay volume was 10 μL prepared from additions of His-BIR2 (124-240/C202A/C213G), Biotinylated SMAC peptide, and test compounds in assay buffer consisting of 25 mM Hepes, 100 mM NaCl, 0.1% BSA, and 5 mM CaCl2. The reaction was incubated at room temperature for 60 minutes. After 60 minutes, 2.5 μL of Alphascreen detection reagent (Perkin Elmer) was added to the reaction mixture and incubated at room temperature in the dark for 120 minutes. The Alphascreen signal generated by the reaction was detected on the Envision Plate Reader Inhibition data were calculated from an Alphascreen signal generated by the no protein control reactions for 100% inhibition and vehicle-only reactions for 0% inhibition. The final concentration of reagents in the assay was 50 nM His-BIR2 (124-240/C202A/C213G), 50 nM.
Biotinylated SMAC peptide, 4 μg/mL Alphascreen detection reagents, and 0.5% DMSO. Dose response curves were generated to determine the concentration required for inhibiting 50% of the activity (IC50). Compounds were dissolved at 10 mM in dimethylsulfoxide (DMSO) and evaluated at eleven concentrations. IC50 values were derived by non-linear regression analysis.

Chain of XIAP BIR2-3 (His-BIR2-3 (125-356, C202A/C213G, XIAP)) (P98170 whole entry C202A/C213G, looked up): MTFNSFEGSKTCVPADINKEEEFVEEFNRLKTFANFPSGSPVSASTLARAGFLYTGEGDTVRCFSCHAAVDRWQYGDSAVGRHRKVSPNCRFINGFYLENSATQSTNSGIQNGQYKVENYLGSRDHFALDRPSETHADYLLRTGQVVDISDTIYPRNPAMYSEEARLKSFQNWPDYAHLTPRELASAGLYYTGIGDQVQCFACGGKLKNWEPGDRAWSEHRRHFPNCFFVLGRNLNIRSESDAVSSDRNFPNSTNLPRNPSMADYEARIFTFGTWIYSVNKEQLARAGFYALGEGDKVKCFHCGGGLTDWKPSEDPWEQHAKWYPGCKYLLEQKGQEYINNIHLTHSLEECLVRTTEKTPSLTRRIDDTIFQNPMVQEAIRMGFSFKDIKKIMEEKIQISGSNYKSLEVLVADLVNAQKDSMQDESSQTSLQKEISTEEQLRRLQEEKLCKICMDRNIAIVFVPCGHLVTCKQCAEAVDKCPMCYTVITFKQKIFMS
Chain of XIAP BIR3 (His-BIR3 (241-356, XIAP)) (P98170 whole entry, looked up): as the sequence (P98170 whole entry C202A/C213G, looked up) above, with A202C, G213C counted along it
Chain of XIAP BIR2 (His-BIR2 (124-240/C202A/C213G)) (P98170 whole entry C202A/C213G, looked up): as the sequence (P98170 whole entry C202A/C213G, looked up) above
Chain of XIAP BIR3 (N-His-Tb-BIR3(241-356, XIAP)) (P98170 whole entry, looked up): as the sequence (P98170 whole entry C202A/C213G, looked up) above, with A202C, G213C counted along it

With `CN[C@@H](C)C(=O)NC(Cc1ccc(NC(=O)c2ccc(C(=O)N[C@H]3C[C@@H](C(=O)NC4CCCc5ccccc54)N(C(=O)[C@@H](NC(=O)[C@H](C)NC)C(C)(C)C)C3)cc2)cc1)C(=O)N1C[Si](C)(C)C[C@H]1C(=O)NC1CCCc2ccccc21` (stereo partly drawn) [Example 1], the IC50 in assay [1] amounted to 12 nM; in assay [2], 4 nM.
For `CN[C@@H](C)C(=O)N[C@@H](Cc1ccc(NC(=O)N[C@H]2C[C@@H](C(=O)N[C@@H]3CCCc4ccccc43)N(C(=O)[C@@H](NC(=O)[C@H](C)NC)C(C)(C)C)C2)cc1)C(=O)N1C[Si](C)(C)C[C@H]1C(=O)N[C@@H]1CCCc2ccccc21` [Example 2, (R)-1-((S)-3-(4-(3-((3S,5S)-1-((S)-3,3-Dimethyl-2-((S)-2-(methylamino)propanamido)butanoyl)-5-(((R)-1,2,3,4-tetrahydronaphthalen-1-yl)carbamoyl)pyrrolidin-3-yl)ureido)phenyl)-2-((S)-2-(methylamino)propanamido)propanoyl)-3,3-dimethyl-N—((R)-1,2,3,4-tetrahydronaphthalen-1-yl)-1,3-azasilolidine-5-carboxamide], the IC50 in assay [1] was found to be 16 nM; in assay [2], 6 nM.
In the case of `CN[C@@H](C)C(=O)NC(Cc1ccc(NC(=O)c2ccc(CO[C@H]3C[C@@H](C(=O)NC4CCCc5ccccc54)N(C(=O)[C@@H](NC(=O)[C@H](C)NC)C(C)(C)C)C3)cc2)cc1)C(=O)N1C[Si](C)(C)C[C@H]1C(=O)NC1CCCc2ccccc21` (stereo partly drawn) [Example 3, (R)-1-((S)-3-(4-(4-((((3S,5S)-1-((S)-3,3-Dimethyl-2-(S)-2-(methylamino)propanamido)butanoyl)-5-(((R)-1,2,3,4-tetrahydronaphthalen-1-yl)carbamoyl)pyrrolidin-3-yl)oxy)methyl)benzamido)phenyl)-(2-((S)-2-(methylamino)propanamido)propanoyl)-3,3-dimethyl-N—((R)-1,2,3,4-tetrahydronaphthalen-1-yl)-1,3-azasilolidine-5-carboxamide], the results for the IC50 in assay [1] and in assay [2] were 14 nM and 5 nM, respectively.
Regarding `CN[C@@H](C)C(=O)NC(Cc1ccc(C(=O)Nc2ccc(C(=O)N[C@H]3C[C@@H](C(=O)NC4CCCc5ccccc54)N(C(=O)[C@@H](NC(=O)[C@H](C)NC)C(C)(C)C)C3)cc2)cc1)C(=O)N1C[Si](C)(C)C[C@H]1C(=O)NC1CCCc2ccccc21` (stereo partly drawn) [Example 4], the 50% inhibitory concentration (IC50) stood at 14 nM in assay [1] and 4 nM in assay [2].
Regarding `CN[C@@H](C)C(=O)N[C@@H](Cc1ccc(C#Cc2ccc(C(=O)N[C@H]3C[C@@H](C(=O)N[C@@H]4CCCc5ccccc54)N(C(=O)[C@@H](NC(=O)[C@H](C)NC)C(C)(C)C)C3)cc2)cc1)C(=O)N1C[Si](C)(C)C[C@H]1C(=O)N[C@@H]1CCCc2ccccc21` [Example 5, (R)-1-((S)-3-(4-((4-(((3S,5S)-1-((S)-3,3-Dimethyl-2-((S)-2-(methylamino)propanamido)butanoyl)-5-(((R)-1,2,3,4-tetrahydronaphthalen-1-yl)carbamoyl)pyrrolidin-3-yl)carbamoyl)phenyl)ethynyl)phenyl)-2-((S)-2-(methylamino)propanamido)propanoyl)-3,3-dimethyl-N—((R)-1,2,3,4-tetrahydronaphthalen-1-yl)-1,3-azasilolidine-5-carboxamide], the concentration for half-maximal inhibition (IC50) in assay [1] worked out at 103 nM; in assay [2], 341 nM.
Consider `CN[C@@H](C)C(=O)N[C@@H](Cc1ccc(CCc2ccc(C(=O)N[C@H]3C[C@@H](C(=O)N[C@@H]4CCCc5ccccc54)N(C(=O)[C@@H](NC(=O)[C@H](C)NC)C(C)(C)C)C3)cc2)cc1)C(=O)N1C[Si](C)(C)C[C@H]1C(=O)N[C@@H]1CCCc2ccccc21` [Example 6, (R)-1-((S)-3-(4-(4-(((3S,5S)-1-((S)-3,3-Dimethyl-2-((S)-2-(methylamino)propanamido)butanoyl)-5-(((R)-1,2,3,4-tetrahydronaphthalen-1-yl)carbamoyl)pyrrolidin-3-yl)carbamoyl)phenethyl)phenyl)-2-((S)-2-(methylamino)propanamido)propanoyl)-3,3-dimethyl-N—((R)-1,2,3,4-tetrahydronaphthalen-1-yl)-1,3-azasilolidine-5-carboxamide], for which the values for the 50% inhibitory concentration (IC50) in assay [1] and in assay [2] were 84 nM and 205 nM, respectively.
As for `CN[C@@H](C)C(=O)NC(Cc1ccc(-c2ccc(C(=O)NC3C[C@@H](C(=O)NC4CCCc5ccccc54)N(C(=O)[C@@H](NC(=O)[C@H](C)NC)C(C)(C)C)C3)cc2)cc1)C(=O)N1C[Si](C)(C)C[C@H]1C(=O)NC1CCCc2ccccc21` (stereo partly drawn) [Example 7], the results for the concentration for half-maximal inhibition (IC50) in assay [1] and in assay [2] were 93 nM and 307 nM, respectively.
Turning to `CN[C@@H](C)C(=O)N[C@@H](Cc1ccc(C#CC(=O)N[C@H]2C[C@@H](C(=O)N[C@@H]3CCCc4ccccc43)N(C(=O)[C@@H](NC(=O)[C@H](C)NC)C(C)(C)C)C2)cc1)C(=O)N1C[Si](C)(C)C[C@H]1C(=O)N[C@@H]1CCCc2ccccc21` [Example 8, (R)-1-((S)-3-(4-(3-(((3S,5S)-1-((S)-3,3-Dimethyl-2-((S)-2-(methylamino)propanamido)butanoyl)-5-(((R)-1,2,3,4-tetrahydronaphthalen-1-yl)carbamoyl)pyrrolidin-3-yl)amino)-3-oxoprop-1-yn-1-yl)phenyl)-2-((S)-2-(methylamino)propanamido)propanoyl)-3,3-dimethyl-N—((R)-1,2,3,4-tetrahydronaphthalen-1-yl)-1,3-azasilolidine-5-carboxamide], the IC50 in assay [1] came out at 3 nM; in assay [2], 4 nM.
On to `CN[C@@H](C)C(=O)N[C@H](C(=O)N1C[C@@H](NC(=O)c2ccc(CN(C(=O)[C@@H]3C[Si](C)(C)CN3C(=O)[C@@H](NC(=O)[C@H](C)NC)C(C)(C)C)[C@H](C)c3ccccc3F)cc2)C[C@H]1C(=O)N[C@@H]1CCCc2ccccc21)C(C)(C)C` [Example 9, (R)-1-((S)-3,3-Dimethyl-2-((S)-2-(methylamino)propanamido)butanoyl)-N-(4-(((3S,5S)-1-((S)-3,3-dimethyl-2-((S)-2-(methylamino)propanamido)butanoyl)-5-(((R)-1,2,3,4-tetrahydronaphthalen-1-yl)carbamoyl)pyrrolidin-3-yl)carbamoyl)benzyl)-N—((R)-1-(2-fluorophenyl)ethyl)-3,3-dimethyl-1,3-azasilolidine-5-carboxamide], for which the IC50 in assay [1] stood at 52 nM; in assay [2] it was 9 nM.
In the same order, the values of `CN[C@@H](C)C(=O)N[C@@H](Cc1ccc(C(=O)N[C@H]2C[C@@H](C(=O)N[C@@H]3CCCc4ccccc43)N(C(=O)[C@@H](NC(=O)[C@H](C)NC)C(C)(C)C)C2)cc1)C(=O)N1C[Si](C)(C)C[C@H]1C(=O)N[C@@H]1CCCc2ccccc21` [Example 10, (R)-1-((S)-3-(4-(((3S,5S)-1-((S)-3,3-dimethyl-2-((S)-2-(methylamino)propanamido)butanoyl)-5-(((R)-1,2,3,4-tetrahydronaphthalen-1-yl)carbamoyl)pyrrolidin-3-yl)carbamoyl)phenyl)-2-((S)-2-(methylamino)propanamido)propanoyl)-3,3-dimethyl-N-((R)-1,2,3,4-tetrahydronaphthalen-1-yl)-1,3-azasilolidine-5-carboxamide] are 8 nM and 5 nM.
On to `CC[C@H](NC)C(=O)N[C@@H](Cc1ccc(NC(=O)c2ccc(C(=O)N[C@H]3C[C@@H](C(=O)N[C@@H]4CCCc5ccccc54)N(C(=O)[C@@H](NC(=O)[C@H](C)NC)C(C)(C)C)C3)cc2)cc1)C(=O)N1C[Si](C)(C)C[C@H]1C(=O)N[C@@H]1CCCc2ccccc21` [Example 11, N1-((3S,5S)-1-((S)-3,3-dimethyl-2-((S)-2-(methylamino)propanamido)butanoyl)-5-(((R)-1,2,3,4-tetrahydronaphthalen-1-yl)carbamoyl)pyrrolidin-3-yl)-N4-(4-((S)-3-((R)-3,3-dimethyl-5-(((R)-1,2,3,4-tetrahydronaphthalen-1-yl)carbamoyl)-1,3-azasilolidin-1-yl)-2-((S)-2-(methylamino)butanamido)-3-oxopropyl)phenyl)terephthalamide], for which the IC50 in assay [1] was found to be 30 nM; in assay [2] it was 6 nM.
Turning to `CN[C@@H](C)C(=O)N[C@H](C(=O)N1C[C@@H](NC(=O)c2ccc(CN(C(=O)[C@@H]3C[Si](C)(C)CN3C(=O)[C@@H](NC(=O)[C@H](C)NC)C(C)(C)C)[C@H](C)c3cccc(F)c3F)cc2)C[C@H]1C(=O)N[C@@H]1CCCc2ccccc21)C(C)(C)C` [Example 12, (R)-N-((R)-1-(2,3-Difluorophenyl)ethyl)-1-((S)-3,3-dimethyl-2-((S)-2-(methylamino)propanamido)butanoyl)-N-(4-(((3S,5S)-1-((S)-3,3-dimethyl-2-((S)-2-(methylamino)propanamido)butanoyl)-5-(((R)-1,2,3,4-tetrahydronaphthalen-1-yl)carbamoyl)pyrrolidin-3-yl)carbamoyl)benzyl)-3,3-dimethyl-1,3-azasilolidine-5-carboxamide], the IC50 in assay [3] came to 170 nM; in assay [4], 590 nM.

Broadly, the IC50 is the point on the concentration scale where inhibition reaches its midpoint.
